Experimental data taken from patent publication US20220133702A1, “CYSTIC FIBROSIS TRANSMEMBRANE CONDUCTANCE REGULATOR MODULATORS FOR TREATING AUTOSOMAL DOMINANT POLYCYSTIC KIDNEY DISEASE” (The Johns Hopkins University, priority 2020, published 2022).

Key:
NHE3 in PN cells = assay: NHE3 activity; format: cell-based, mouse; conditions: treated PN cells vs PN cells
Experimental: FIG. 15A and FIG. 15B show NHE3 activity in PN and PH cells (FIG. 15A and FIG. 15B) and NHE3 activity in PN cells treated with VX-809.
FIG. 16A, FIG. 16B, and FIG. 16C show NHE activity in PN/PH cells or PN cells treated with VX-809;
The expression and activity of […] were evaluated. Specifically, NHE3 expression was evaluated in PN cells that were treated with VX-809. […] was also studied in PN, PH, and PN cells treated with VX-809. […] Next, NHE3 activity was evaluated in PN/PH cells or PN cells treated with VX-809. NHE3 activity was increased in PN cells treated with VX-809, as compared to PN cells (FIG. 16A). NHE3 activity was higher in control PH cells than in PN cells (FIG. 16B). […] NHE3 activity was increased in both VX-809 treated PN cells and control PH cells, as compared to control PN cells (FIG. 16C).

[1] = system: adenylyl cyclase (AC) 6 and AC3 in PN cells; assay: Western blot of adenylyl cyclase expression; format: cell-based, mouse; conditions: PN cells treated with VX-809
Experimental: FIG. 4A, FIG. 4B, FIG. 4C, FIG. 4D, and FIG. 4E show (FIG. 4A-FIG. 4B) cAMP levels are reduced by VX-809. (FIG. 4A) cAMP levels in mouse tissue were reduced by VX-809. The kidney samples (n=6) analyzed were taken from those depicted in FIG. 1. (FIG. 4B) Confluent PN and PH cells were treated with VX-809 (10 μM) or DMSO for 16 hand then treated with forskolin (100 μM) for 30 min before the cells were harvested for the assay. Columns represent means±SEM. Statistical analysis was performed using a two-tailed Student's t-test. Each set of data is from three individual wells; Note that resting cAMP is greater in PN vs PH cells as previously shown (25). Also note that forskolin caused a large increase in cAMP. A smaller increase occurred with IBMX. However, the increase induced by forskolin alone was similar to that by IBMX plus forskolin. […] (FIG. 4C, FIG. 4D, and FIG. 4E) Adenylyl cyclase expression. (FIG. 4C) Western blot showing the expression of adenylyl cyclase (AC) 6 and AC3 in treated and control PN cells. (FIG. 4D-FIG. 4E) Columns represent means±SEM of the AC3 and AC6 expression. The data were analyzed by non-parametric t-test. The experiment was repeated four times. For all graphs, *P<0.05, **P<0.01, and ***P<0.001;
There are two classes of adenylyl cyclases that are regulated by intracellular Ca^2+: one class is activated, and the other inhibited. […]

[2] = system: HSP27, HSP70 and HSP90 in PN cells; assay: Western blot of heat shock proteins in cells; format: cell-based, mouse; conditions: 10 μM, 16 h
Experimental: FIG. 8A, FIG. 8B, FIG. 8C, FIG. 8D, FIG. 8E, FIG. 8F, FIG. 8G, and FIG. 8H show chaperone expression is altered in PH and PN cells by VX-809. […] Western blot showing expression of HSP27, HSP70 and HSP90 in VX-809 treated or control PN cells. […] (FIG. 8E). Western blot of HSP27, HSP70 and HSP90 in PH vs. PN cells. […] Whereas, Hsp70 is higher in PH vs. PN cells. Data were analyzed by non-parametric t test. Experiment was repeated 4-5 times. Cells were grown in 10-cm culture dishes at permissive conditions (33° C.) with y-interferon in culture media. Cells were then transferred to non-permissive conditions at 37° C., y-interferon free culture media and evaluated at full confluence. At day four, cells were treated with VX-809 (10 μM) for 16 h and harvested on fifth day for assay. *P<0.05., **P<0.01, ***P<0.001, ****P<0.0001;
To facilitate their growth in the kidney, cysts have developed an altered network of proteins that most likely serves to protect them from stress . Next, it was determined whether VX-809 would alter the levels of Hsps in pkd−/− mice and in PN cells. […] Hsp 27, 70 and 90 are all elevated in cystic kidneys compared to normal controls. […] There is no change in Hsp40. […] Both sets of data are consistent with an alteration in the heat shock response to cyst growth.

CFTR in PN cells = assay: CFTR expression and biotinylation; format: cell-based, mouse; conditions: 10 μM, 16 h, vs control PN cells
Experimental: FIG. 19A, FIG. 19B, FIG. 19C, and FIG. 19D show CFTR expression in PN cells treated with VX-809 (10 μM) for 16 h.
The expression of CFTR was evaluated in PN cells treated with VX-809 and control PN cells. PN cells were treated with 10 μM VX-809 for 16 h or a control.

PC2 = assay: Confocal localization of PC2 with ER, Golgi and PM markers; format: cell-based; conditions: treated vs control cells, Pearson's correlation with markers
Text: FIG. 17A and FIG. 17B show images of confocal microscopy localization studies of PC2 and localization markers in control and treated cells (FIG. 17A) and graphs showing Pearson's correlation coefficient for PC2 and localization markers in control and VX-809 treated cells (FIG. 17B).
The localization of PC2 and CFTR in control cells was compared to the localization of PC2 and CFTR localization in VX-809 treated cells.

Cc1ccc(NC(=O)C2(c3ccc4c(c3)OC(F)(F)O4)CC2)nc1-c1cccc(C(=O)O)c1 [VX-809, lumacaftor]
NHE3 activity (NHE3 in PN cells): significantly increased | AC3 levels [1]: decreased | AC6 regulation [1]: Regulates AC3 but not AC6 | Hsp27 expression [2]: reduced expression | Hsp70 expression [2]: reduced expression | Hsp90 expression [2]: reduced expression | CFTR expression (CFTR in PN cells): enhanced | biotinylation of CFTR (CFTR in PN cells): significantly increased | PC2 localization (PC2): statistically significant move of PC2 from the ER to Golgi
